Assay results from patent US8815306B2, “Methods and compositions for promoting bone and joint health” (Metaproteomics, LLC, priority 2007, dated 2014).
Counter-ions that a name gives are not always drawn.

Key:
[1] = tested on: TNFα induced MMP-13 expression; assay: Synergy (Combinational Index) of THIAA and berberine on TNFα induced MMP-13 expression in SW1353; type: cell-based; settings: Homo sapiens
Protocol: The SW1353 human chondrocyte cell line was used as described in Example 1.
The human chondrocyte cell line, SW1353 were maintained and treatments conditions were described in Example 1. […]; 1:10; 5:1; 2:1; 1:1; 1:2; 1:5; 1:10; […].
Determination of MMP-13 expression—The MMP-13 levels in the medium was measured as described in Example 1.
Median effect calculations were performed using CalcuSyn (Biosoft, Ferguson, Mo.). […] A minimum of three concentrations were used to determine the dose-response curve and a median inhibitory concentration (IC50).
Synergy—Combinational Index (CI) values were measured using CalcuSyn (Biosoft, Ferguson, Mo.). […]

[2] = tested on: TNFα induced MMP-13 expression; assay: TNFα induced MMP-13 expression in human chondrocyte cell line SW1353; settings: for TNFa Stimulated % Activity average (MMP-13 expression): Table 6, TNF pos = 100%
Protocol: The SW1353 human chondrocyte cell line was used as described below.
Cells were grown and subcultured in 96-well plates at a density of 8×10^4 cells per well and allowed to reach ˜80% confluence overnight. Test compounds in medium were added to the cells at a final concentration of 0.1% DMSO. Following one hour of incubation with the test compounds, TNFα (10 ng/ml) or medium alone was added to the cell wells and incubation continued for 24 hours. The supernatant media was subsequently collected for MMP-13 determination.
Determination of MMP-13: A commercial, non-radioactive procedure for quantification of MMP-13 was used according to the manufacturer's instructions using MMP-13 as a standard. A minimum of 3 wells were used for each test condition.
The amount of MMP-13 release into the medium was determined by comparison of the MMP-13 generated in the presence or absence of TNFα and test compounds. A minimum of three wells were used for each test condition. The basal MMP-without 13 levels without TNFα stimulation was subtracted from TNF stimulation to determine the TNFα induced MMP-13 expression in the medium and the levels normalized to 100%. The percent activity of test compounds was measured in the presence of TNFα and referred as TNFα induced MMP-13 expression.

SMILES: COc1ccc2cc3[n+](cc2c1OC)CCc1cc2c(cc1-3)OCO2 [Berberine sulfate]
- IC50 ([1]; Table 7B, single agents, read-out: Dm (median effect dose, TNFα induced MMP-13 expression)): 0.254 µg/mL
- IC50 ([1]; text b137, single agents, read-out: IC50 (TNFα induced MMP-13 expression)): 0.254 µg/mL
- Dose dependence of modulation of TNFα induced MMP-13 expression ([2]; Example 3, SW1353): dose dependently modulated
- IC50 ([2]; Homo sapiens, SW1353, read-out: IC50 (TNFa induced MMP-13 expression)): 0.15 µg/mL
- TNFa Stimulated % Activity average (MMP-13 expression) ([2]; 0.05 ug/mL, SW1353): 99%
- TNFa Stimulated % Activity average (MMP-13 expression) ([2]; 0.1 ug/mL, SW1353): 50%
- TNFa Stimulated % Activity average (MMP-13 expression) ([2]; 0.5 ug/mL, SW1353): 4%
- TNFa Stimulated % Activity average (MMP-13 expression) ([2]; 1 ug/mL, SW1353): −1%
